Laboratory results as given in paper PMC12892976, “Alkylation-based optimization of antifungal FPPS inhibitors yields a potent, broad-spectrum lipophilic zoledronate derivative” (mBio, 2025).
Values after ≈ are worked out from the molar mass of the structure shown. Like-named read-outs stand apart in the source and are kept apart here.

Tests used:
Saccharomyces cerevisiae [1] = experiment: checkerboard drug interaction (FICI, MICc); format: cell-based; parameters: INH MICc / INH MICc (ITR:INH) / INH MICc (KET:INH) / INH MICc (FLC:INH): unit not given beside the values;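 further: simplified diagonal checkerboard screen pairing antifungals with FPPS inhibitors, FICI calculated under the Loewe additivity model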
Candida albicans [2] = experiment: MIC/MFC broth microdilution (CLSI); format: cell-based; settings: Candida albicans SC5314
Experimental: (§1) Antifungal susceptibility was determined by broth microdilution according to the CLSI guidelines described in M27-Ed4 ([16]). […] MFC was determined by back-plating drug-treated cultures from MIC broths onto SDA plates. The MFC was defined as the lowest concentration from which no colonies could be cultured.

Trichophyton rubrum [3] = experiment: MIC/MFC broth microdilution (CLSI); settings: Trichophyton rubrum
Experimental: as §1

[4] = system: Cryptococcus deuterogattii; experiment: checkerboard drug interaction (FICI, MICc);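 on all read-outs here: simplified diagonal checkerboard screen pairing antifungal drugs with FPPS inhibitors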; format: cell-based; settings: C. deuterogattii; for INH FD (MIC-MICc fold decrease): fold decrease of inhibitor MIC
Experimental: (§2) Drug interactions between antifungals and FPPS inhibitors were investigated using a simplified checkerboard diagonal screening method ([45]). […] FICIs were determined according to the Loewe additivity model ([17]).

HEK-293T cells = experiment: MTT reduction cytotoxicity assay; format: cell-based; settings: Homo sapiens, HEK-293T, 72 h, MTT, 72 h
Candida glabrata [5] = experiment: checkerboard drug interaction (FICI, MICc);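 on all read-outs here: simplified diagonal checkerboard screen pairing antifungals with FPPS inhibitors, FICI calculated under the Loewe additivity model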; format: cell-based; settings: C. glabrata; for INH FD (MIC-MICc fold decrease): fold decrease of inhibitor MIC
Experimental: as §2

eight fungal species [6] = experiment: MIC/MFC summary across the eight fungal species of Table 1; format: cell-based
Experimental: The antifungal activity of these compounds was evaluated according to CLSI guidelines ([16]).

Aspergillus flavus [7] = experiment: checkerboard drug interaction (FICI, MICc);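 further: simplified diagonal checkerboard screen pairing azole antifungals with FPPS inhibitors, FICI calculated under the Loewe additivity model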; format: cell-based; parameters: INH MICc (KET:INH) / INH MICc (FLC:INH): unit not given beside the values; settings: A. flavus
[8] = system: Cryptococcus deuterogattii; experiment: MIC/MFC broth microdilution (CLSI); settings: Cryptococcus deuterogattii;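 further: broth microdilution per CLSI M27-Ed4. MFC is the lowest concentration yielding no colonies when MIC broths are subcultured onto SDA plates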
Experimental: as §1

Cryptococcus neoformans [9] = experiment: checkerboard drug interaction (FICI, MICc);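 on all read-outs here: antifungal plus FPPS inhibitor pairs tested against Cryptococcus neoformans by simplified diagonal checkerboard screening, FICI computed under the Loewe additivity model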; format: cell-based; settings: C. neoformans; for INH FD (MIC-MICc fold decrease): fold decrease of inhibitor MIC
Experimental: as §2

Candida albicans [10] = experiment: checkerboard drug interaction (FICI, MICc);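 on all read-outs here: antifungal plus FPPS inhibitor combinations on Candida albicans tested by a simplified diagonal checkerboard screen, with FICI calculated under the Loewe additivity model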; format: cell-based; settings: C. albicans; for INH FD (MIC-MICc fold decrease): fold decrease of inhibitor MIC
Experimental: as §2

Aspergillus fumigatus [11] = experiment: checkerboard drug interaction (FICI, MICc); format: cell-based;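 further: simplified diagonal checkerboard screen pairing antifungals with FPPS inhibitors against Aspergillus fumigatus, with FICI calculated under the Loewe additivity model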
Experimental: as §2

Cryptococcus neoformans [12] = experiment: MIC/MFC broth microdilution (CLSI); settings: Cryptococcus neoformans;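 further: susceptibility testing followed the CLSI M27-Ed4 broth microdilution document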
Experimental: as §1

eight fungal species [13] = experiment: checkerboard interaction with azoles, summary across the eight species; format: cell-based; settings: geometric mean MIC in combination with azoles
From the text: Synergy between lipophilic FPPS inhibitors and azole antifungals was investigated by determining the fractional inhibitory concentration index (FICI) (Fig. 2; Table S1 Fig. S1) ([17]). […]. Derivatives PLA9 and 11, and PDA9, 11, and 12 antagonized azoles in C. albicans, C. neoformans, and C. deuterogattii, yet were largely synergistic in C. glabrata and S. cerevisiae. […].

Candida glabrata [14] = experiment: MIC/MFC broth microdilution (CLSI); settings: Nakaseomyces glabratus, CBS138;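 further: broth microdilution following CLSI M27-Ed4, MFC taken as the lowest drug level yielding no growth once MIC wells were subcultured on SDA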
Experimental: as §1

Saccharomyces cerevisiae [15] = experiment: MIC/MFC broth microdilution (CLSI); format: cell-based; settings: Saccharomyces cerevisiae S288c
Experimental: as §1

Aspergillus fumigatus [16] = experiment: MIC/MFC broth microdilution (CLSI); settings: ATCC204305
Experimental: as §1

Aspergillus flavus [17] = experiment: MIC/MFC broth microdilution (CLSI); settings: ATCC204304
Experimental: as §1

Trichophyton rubrum [18] = experiment: checkerboard drug interaction (FICI, MICc);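 further: simplified diagonal checkerboard screen pairing azole antifungals with FPPS inhibitors, FICI calculated under the Loewe additivity model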; format: cell-based; settings: T. rubrum
Experimental: as §2

[19] = Fractional Inhibitory Concentration Index, fluconazole + inhibitor
[20] = Fractional Inhibitory Concentration Index, itraconazole + inhibitor
[21] = Fractional Inhibitory Concentration Index, ketoconazole + inhibitor
[22] = MIC of the inhibitor in combination with fluconazole
[23] = MIC of the inhibitor in combination with itraconazole
[24] = MIC of the inhibitor in combination with ketoconazole
[25] = MIC-MICc fold decrease of fluconazole, negative = increase
[26] = MIC-MICc fold decrease of itraconazole, negative = increase
[27] = MIC-MICc fold decrease of ketoconazole, negative = increase
[28] = MIC-MICc fold decrease of the inhibitor, with fluconazole
[29] = MIC-MICc fold decrease of the inhibitor, with itraconazole
[30] = MIC-MICc fold decrease of the inhibitor, with ketoconazole
[31] = FLC:INH combination, MIC of the inhibitor in combination with FLC
[32] = FLC:INH combination, fold decrease of FLC MIC
[33] = ITR:INH combination, MIC of the inhibitor in combination with ITR
[34] = ITR:INH combination, fold decrease of ITR MIC
[35] = KET:INH combination, MIC of the inhibitor in combination with KET
[36] = KET:INH combination, fold decrease of KET MIC

CCCCCCCCCN1CCC[C@H]1C(=O)N[C@H](CC(=O)OC)C(=O)OC [dmPDA9]
FICI (FLC:INH) (Saccharomyces cerevisiae [1]; [19]): 1.5
FICI (ITR:INH) (Saccharomyces cerevisiae [1]; [20]): 3
FICI (KET:INH) (Saccharomyces cerevisiae [1]; [21]): 2.5
INH MICc (FLC:INH) (Saccharomyces cerevisiae [1]; [22]): 64
INH MICc (ITR:INH) (Saccharomyces cerevisiae [1]; [23]): 64
INH MICc (KET:INH) (Saccharomyces cerevisiae [1]; [24]): 128
FLC FD (FLC:INH) (Saccharomyces cerevisiae [1]; [25]): 2
ITR FD (ITR:INH) (Saccharomyces cerevisiae [1]; [26]): -2
KET FD (KET:INH) (Saccharomyces cerevisiae [1]; [27]): 2
INH FD (FLC:INH) (Saccharomyces cerevisiae [1]; [28]): 1
INH FD (ITR:INH) (Saccharomyces cerevisiae [1]; [29]): 1
INH FD (KET:INH) (Saccharomyces cerevisiae [1]; [30]): -2
MFC (Candida albicans [2]): > 128 µg/mL
MIC (Candida albicans [2]): 128 µg/mL (≈ 333 µM)
MFC (Trichophyton rubrum [3]): > 128 µg/mL
MIC (Trichophyton rubrum [3]): 32 µg/mL (≈ 83.2 µM)
FICI ([4]; FLC:INH combination): 3
INH MICc [4, 31]: 128
FLC FD (MIC-MICc fold decrease) [4, 32]: -2
INH FD (MIC-MICc fold decrease) ([4]; FLC:INH combination): 1
FICI ([4]; ITR:INH combination): 1.25
INH MICc [4, 33]: 32
ITR FD (MIC-MICc fold decrease) [4, 34]: 1
INH FD (MIC-MICc fold decrease) ([4]; ITR:INH combination): 4
FICI ([4]; KET:INH combination): 1.5
INH MICc [4, 35]: 128
KET FD (MIC-MICc fold decrease) [4, 36]: 2
INH FD (MIC-MICc fold decrease) ([4]; KET:INH combination): 1
IC50 (HEK-293T cells; HEK-293T cells, read-out: IC50): 10.4 µg/mL (≈ 27.2 µM)
IC50 (HEK-293T cells; read-out: HEK IC50): 10.4 µg/mL (≈ 27.2 µM)
FICI (Candida glabrata [5]; FLC:INH combination): 2.5
INH MICc (Candida glabrata [5]; [31]): 32
FLC FD (MIC-MICc fold decrease) (Candida glabrata [5]; [32]): -2
INH FD (MIC-MICc fold decrease) (Candida glabrata [5]; FLC:INH combination): 4
FICI (Candida glabrata [5]; ITR:INH combination): 1.13
INH MICc (Candida glabrata [5]; [33]): 8
ITR FD (MIC-MICc fold decrease) (Candida glabrata [5]; [34]): 1
INH FD (MIC-MICc fold decrease) (Candida glabrata [5]; ITR:INH combination): 16
FICI (Candida glabrata [5]; KET:INH combination): 1.13
INH MICc (Candida glabrata [5]; [35]): 8
KET FD (MIC-MICc fold decrease) (Candida glabrata [5]; [36]): 1
INH FD (MIC-MICc fold decrease) (Candida glabrata [5]; KET:INH combination): 16
MFC (eight fungal species [6]; across eight species, read-out: Geometric mean MFC): 181 µg/mL (≈ 471 µM)
MIC (eight fungal species [6]; geometric mean across eight species, read-out: GM fungal MIC): 83 µg/mL (≈ 216 µM)
MIC (eight fungal species [6]; read-out: Geometric mean MIC): 83 µg/mL (≈ 216 µM)
FICI (FLC:INH) (Aspergillus flavus [7]; [19]): 2
FICI (ITR:INH) (Aspergillus flavus [7]; [20]): 2
FICI (KET:INH) (Aspergillus flavus [7]; [21]): 1
INH MICc (FLC:INH) (Aspergillus flavus [7]; [22]): 256
INH MICc (ITR:INH) (Aspergillus flavus [7]; [23]): 256
INH MICc (KET:INH) (Aspergillus flavus [7]; [24]): 128
FLC FD (FLC:INH) (Aspergillus flavus [7]; [25]): 1
ITR FD (ITR:INH) (Aspergillus flavus [7]; [26]): 1
KET FD (KET:INH) (Aspergillus flavus [7]; [27]): 2
INH FD (FLC:INH) (Aspergillus flavus [7]; [28]): 1
INH FD (ITR:INH) (Aspergillus flavus [7]; [29]): 1
INH FD (KET:INH) (Aspergillus flavus [7]; [30]): 2
MFC [8]: 64 µg/mL (≈ 166 µM)
MIC [8]: 64 µg/mL (≈ 166 µM)
FICI (Cryptococcus neoformans [9]; FLC:INH combination): 1.25
INH MICc (Cryptococcus neoformans [9]; [31]): 32
FLC FD (MIC-MICc fold decrease) (Cryptococcus neoformans [9]; [32]): 1
INH FD (MIC-MICc fold decrease) (Cryptococcus neoformans [9]; FLC:INH combination): 4
FICI (Cryptococcus neoformans [9]; ITR:INH combination): ≥4
INH MICc (Cryptococcus neoformans [9]; [33]): 128
ITR FD (MIC-MICc fold decrease) (Cryptococcus neoformans [9]; [34]): -4
INH FD (MIC-MICc fold decrease) (Cryptococcus neoformans [9]; ITR:INH combination): 1
FICI (Cryptococcus neoformans [9]; KET:INH combination): ≥4
INH MICc (Cryptococcus neoformans [9]; [35]): 128
KET FD (MIC-MICc fold decrease) (Cryptococcus neoformans [9]; [36]): -4
INH FD (MIC-MICc fold decrease) (Cryptococcus neoformans [9]; KET:INH combination): 1
FICI (Candida albicans [10]; FLC:INH combination): ≥4
INH MICc (Candida albicans [10]; [31]): 64
FLC FD (MIC-MICc fold decrease) (Candida albicans [10]; [32]): < -4
INH FD (MIC-MICc fold decrease) (Candida albicans [10]; FLC:INH combination): 2
FICI (Candida albicans [10]; ITR:INH combination): ≥4
INH MICc (Candida albicans [10]; [33]): 64
ITR FD (MIC-MICc fold decrease) (Candida albicans [10]; [34]): < -4
INH FD (MIC-MICc fold decrease) (Candida albicans [10]; ITR:INH combination): 2
FICI (Candida albicans [10]; KET:INH combination): ≥4
INH MICc (Candida albicans [10]; [35]): 64
KET FD (MIC-MICc fold decrease) (Candida albicans [10]; [36]): < -4
INH FD (MIC-MICc fold decrease) (Candida albicans [10]; KET:INH combination): 2
FICI (FLC:INH) (Aspergillus fumigatus [11]; [19]): 1.5
FICI (ITR:INH) (Aspergillus fumigatus [11]; [20]): 0.52
FICI (KET:INH) (Aspergillus fumigatus [11]; [21]): 2
INH MICc (FLC:INH) (Aspergillus fumigatus [11]; [22]): 128
INH MICc (ITR:INH) (Aspergillus fumigatus [11]; [23]): 2
INH MICc (KET:INH) (Aspergillus fumigatus [11]; [24]): 128
FLC FD (FLC:INH) (Aspergillus fumigatus [11]; [25]): 2
ITR FD (ITR:INH) (Aspergillus fumigatus [11]; [26]): 2
KET FD (KET:INH) (Aspergillus fumigatus [11]; [27]): 1
INH FD (FLC:INH) (Aspergillus fumigatus [11]; [28]): 1
INH FD (ITR:INH) (Aspergillus fumigatus [11]; [29]): 64
INH FD (KET:INH) (Aspergillus fumigatus [11]; [30]): 1
MFC (Cryptococcus neoformans [12]): 128 µg/mL (≈ 333 µM)
MIC (Cryptococcus neoformans [12]): 32 µg/mL (≈ 83.2 µM)
GM fungal MICc (eight fungal species [13]): 55.4
MFC (Candida glabrata [14]): > 128 µg/mL
MIC (Candida glabrata [14]): 128 µg/mL (≈ 333 µM)
MFC (Saccharomyces cerevisiae [15]): 128 µg/mL (≈ 333 µM)
MIC (Saccharomyces cerevisiae [15]): 64 µg/mL (≈ 166 µM)
MFC (Aspergillus fumigatus [16]): > 128 µg/mL
MIC (Aspergillus fumigatus [16]): 128 µg/mL (≈ 333 µM)
MFC (Aspergillus flavus [17]): > 128 µg/mL
MIC (Aspergillus flavus [17]): > 128 µg/mL
FICI (FLC:INH) (Trichophyton rubrum [18]; [19]): 1.25
FICI (ITR:INH) (Trichophyton rubrum [18]; [20]): 1.13
FICI (KET:INH) (Trichophyton rubrum [18]; [21]): 1.25
INH MICc (FLC:INH) (Trichophyton rubrum [18]; [22]): 32
INH MICc (ITR:INH) (Trichophyton rubrum [18]; [23]): 32
INH MICc (KET:INH) (Trichophyton rubrum [18]; [24]): 32
FLC FD (FLC:INH) (Trichophyton rubrum [18]; [25]): 4
ITR FD (ITR:INH) (Trichophyton rubrum [18]; [26]): 8
KET FD (KET:INH) (Trichophyton rubrum [18]; [27]): 4
INH FD (FLC:INH) (Trichophyton rubrum [18]; [28]): 1
INH FD (ITR:INH) (Trichophyton rubrum [18]; [29]): 1
INH FD (KET:INH) (Trichophyton rubrum [18]; [30]): 1
